Experimental data taken from patent US8846698B2, “Pyrrolo[2,3-d]pyrimidine tropomysin-related kinase inhibitors” (Pfizer Limited, priority 2011, dated 2014).
Like-named read-outs stand apart in the source and are kept apart here.

Legend:
TRKA [1] = target: T1, TRKA (Homo sapiens (Human), UniProt P04629); experiment: Isolated TRK enzyme assay (HTRF KinEASE-TK), TRKA; type: biochemical; settings: isolated TRKA enzyme; read-out: TrkA enzyme potency
Target sequence in this assay (P04629 441-796): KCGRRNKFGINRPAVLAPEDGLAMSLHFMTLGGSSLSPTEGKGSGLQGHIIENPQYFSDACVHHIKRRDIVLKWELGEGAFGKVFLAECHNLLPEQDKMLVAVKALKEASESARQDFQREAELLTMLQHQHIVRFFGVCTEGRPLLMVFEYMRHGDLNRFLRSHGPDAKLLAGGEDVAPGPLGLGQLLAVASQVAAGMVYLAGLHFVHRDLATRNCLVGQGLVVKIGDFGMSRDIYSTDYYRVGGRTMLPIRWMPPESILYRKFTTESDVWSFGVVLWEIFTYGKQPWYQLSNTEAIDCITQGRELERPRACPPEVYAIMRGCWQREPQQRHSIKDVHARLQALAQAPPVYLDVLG

TRKB [2] = target: T2, TRKB (Homo sapiens (Human), UniProt Q16620); experiment: cell-based; settings: TrkB cell potency, TRKB PathHunter cell line
Protocol: (§1) After the Detection Reagent addition, plates are covered and incubated at room temperature for 60 minutes. […] Test compound data are expressed as percentage inhibition defined by HPE and ZPE values for each plate. Percentage inhibition in the presence of test compound is plotted against compound concentration on a log scale to determine an IC50 from the resultant sigmoid curve. Cell Based Assays were carried out using Cell lines from DiscoveRx utilising their PathHunter technology and reagents in an antagonist assay:
(§2) The assays are based upon DiscoveRx's proprietary Enzyme Fragment Complementation (EFC) technology. In the case of the TRK cell lines, the enzyme acceptor (EA) protein is fused to a SH2 protein and the TRK receptor of interest has been tagged with a Prolink tag.
(§3) Upon neurotrophin binding, the TRK receptor becomes phosphorylated, and the tagged SH2 protein binds.
(§4) This means that the IC50 is a good measure of affinity and should be unaffected by concentration neurotrophin stimulant.
(§5) Cryopreserved PathHunter cells are used from either in-house produced batches or bulk batches bought directly from DiscoveRx. Cryopreserved cells are resuscitated, spun 1000 rpm for 4 min to remove freezing media, and resuspended in MEM+0.5% horse serum (both Invitrogen) to 5e^5 cells/ml. The cells are then plated using a Multidrop into Greiner white tissue culture treated plates at 20 ul/well and incubated for 24 h at 37° C., 5% CO2, high humidity. On the day of the assay, the cell plates are allowed to cool to room temperature for 30 min prior to the assay.
(§6) Plates containing 1 ul of serially diluted compound, standard and HPE/ZPE are diluted 1/66 in assay buffer (PBS minus Ca^2+, minus Mg^2+ with 0.05% pluronic F127) using a Wellmate. […] The plates are left at room temperature for a further 2 hours before addition of 10 ul of the DiscoveRx PathHunter detection reagent (made up by adding 1 part Galacton Star, 5 parts Emerald II and 19 parts Cell Assay Buffer as per the manufacturer's instructions).
(§7) After reagent addition, plates are covered and incubated at room temperature for 60 minutes. Luminescence signal is read using an Envision. Test compound data are expressed as percentage inhibition defined by HPE and ZPE values for each plate. Percentage inhibition in the presence of test compound is plotted against compound concentration on a log scale to determine an […] from the resultant sigmoid curve.

TRKA [3] = target: T1, TRKA; experiment: Cell based DiscoveRx PathHunter antagonist assay, TRKA cell line; settings: read-out: TrkA cell potency
Protocol: as §1, §2, §3, §4, §5, §6, §7
Target sequence in this assay (P04629 33-796): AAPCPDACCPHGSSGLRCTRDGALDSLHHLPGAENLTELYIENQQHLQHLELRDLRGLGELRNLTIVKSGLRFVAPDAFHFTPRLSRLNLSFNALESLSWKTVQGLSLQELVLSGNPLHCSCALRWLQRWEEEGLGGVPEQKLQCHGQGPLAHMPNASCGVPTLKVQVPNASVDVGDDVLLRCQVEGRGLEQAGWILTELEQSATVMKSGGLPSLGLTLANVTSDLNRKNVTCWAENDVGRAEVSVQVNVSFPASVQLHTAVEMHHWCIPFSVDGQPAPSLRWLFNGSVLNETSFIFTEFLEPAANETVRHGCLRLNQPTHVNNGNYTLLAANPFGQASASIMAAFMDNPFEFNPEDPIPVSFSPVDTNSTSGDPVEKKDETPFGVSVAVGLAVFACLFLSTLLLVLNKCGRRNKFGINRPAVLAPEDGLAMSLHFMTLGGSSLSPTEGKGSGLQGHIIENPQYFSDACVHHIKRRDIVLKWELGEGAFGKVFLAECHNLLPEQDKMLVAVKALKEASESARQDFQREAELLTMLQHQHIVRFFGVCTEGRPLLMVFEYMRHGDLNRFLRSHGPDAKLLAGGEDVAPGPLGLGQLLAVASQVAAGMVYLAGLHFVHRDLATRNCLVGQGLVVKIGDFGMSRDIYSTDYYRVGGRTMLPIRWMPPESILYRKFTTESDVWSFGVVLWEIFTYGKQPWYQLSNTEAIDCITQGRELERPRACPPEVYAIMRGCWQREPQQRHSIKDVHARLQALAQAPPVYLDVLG

MDR1 = MDR1 (Homo sapiens (Human), UniProt P08183); experiment: MDCK-MDR1 assay (in vitro brain penetration); type: in vitro ADME; settings: human; for Papp A→B: MDCK-MDR1, A to B, read-out: MDCK MDR1 Papp AB; for Papp B→A: read-out: MDCK MDR1 Papp BA
From the text: MDCK-MDR1: MDCK-MDR1 data were collected according to the method described in “Are MDCK Cells Transfected with the Human MDR1 Gene a Good Model of the Human Intestinal Mucosa?”
http://www.springerlink.com/content/qfhqlqbr4fnp3 khf/fulltext.pdf

TRKB [4] = target: T2, TRKB; experiment: biochemical
[5] = isolated TRKB enzyme, read-out: TrkB enzyme potency

T2 sequence (Q16620 32-822 limits assumed): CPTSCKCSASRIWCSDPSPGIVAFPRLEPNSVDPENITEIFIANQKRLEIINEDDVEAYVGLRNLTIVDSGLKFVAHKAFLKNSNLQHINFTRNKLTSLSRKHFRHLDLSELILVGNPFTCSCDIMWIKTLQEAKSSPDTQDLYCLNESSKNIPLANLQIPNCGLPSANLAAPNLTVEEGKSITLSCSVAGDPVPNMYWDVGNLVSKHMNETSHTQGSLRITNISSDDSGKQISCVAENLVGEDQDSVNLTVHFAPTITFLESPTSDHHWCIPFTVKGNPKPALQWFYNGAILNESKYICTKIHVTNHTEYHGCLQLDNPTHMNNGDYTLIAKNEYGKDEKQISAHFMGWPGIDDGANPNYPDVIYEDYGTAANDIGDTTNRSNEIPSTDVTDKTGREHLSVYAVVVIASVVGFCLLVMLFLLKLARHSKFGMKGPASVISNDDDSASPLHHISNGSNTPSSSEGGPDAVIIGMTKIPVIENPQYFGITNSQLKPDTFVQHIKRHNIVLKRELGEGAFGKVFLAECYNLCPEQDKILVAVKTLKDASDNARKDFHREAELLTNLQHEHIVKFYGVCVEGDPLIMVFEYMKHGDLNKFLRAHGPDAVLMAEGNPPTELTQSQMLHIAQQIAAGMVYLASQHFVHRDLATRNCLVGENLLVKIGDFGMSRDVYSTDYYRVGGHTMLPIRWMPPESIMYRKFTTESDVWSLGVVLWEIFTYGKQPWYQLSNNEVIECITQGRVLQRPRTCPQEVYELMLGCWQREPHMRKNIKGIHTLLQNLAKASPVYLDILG
Chain of MDR1 (P08183 whole entry): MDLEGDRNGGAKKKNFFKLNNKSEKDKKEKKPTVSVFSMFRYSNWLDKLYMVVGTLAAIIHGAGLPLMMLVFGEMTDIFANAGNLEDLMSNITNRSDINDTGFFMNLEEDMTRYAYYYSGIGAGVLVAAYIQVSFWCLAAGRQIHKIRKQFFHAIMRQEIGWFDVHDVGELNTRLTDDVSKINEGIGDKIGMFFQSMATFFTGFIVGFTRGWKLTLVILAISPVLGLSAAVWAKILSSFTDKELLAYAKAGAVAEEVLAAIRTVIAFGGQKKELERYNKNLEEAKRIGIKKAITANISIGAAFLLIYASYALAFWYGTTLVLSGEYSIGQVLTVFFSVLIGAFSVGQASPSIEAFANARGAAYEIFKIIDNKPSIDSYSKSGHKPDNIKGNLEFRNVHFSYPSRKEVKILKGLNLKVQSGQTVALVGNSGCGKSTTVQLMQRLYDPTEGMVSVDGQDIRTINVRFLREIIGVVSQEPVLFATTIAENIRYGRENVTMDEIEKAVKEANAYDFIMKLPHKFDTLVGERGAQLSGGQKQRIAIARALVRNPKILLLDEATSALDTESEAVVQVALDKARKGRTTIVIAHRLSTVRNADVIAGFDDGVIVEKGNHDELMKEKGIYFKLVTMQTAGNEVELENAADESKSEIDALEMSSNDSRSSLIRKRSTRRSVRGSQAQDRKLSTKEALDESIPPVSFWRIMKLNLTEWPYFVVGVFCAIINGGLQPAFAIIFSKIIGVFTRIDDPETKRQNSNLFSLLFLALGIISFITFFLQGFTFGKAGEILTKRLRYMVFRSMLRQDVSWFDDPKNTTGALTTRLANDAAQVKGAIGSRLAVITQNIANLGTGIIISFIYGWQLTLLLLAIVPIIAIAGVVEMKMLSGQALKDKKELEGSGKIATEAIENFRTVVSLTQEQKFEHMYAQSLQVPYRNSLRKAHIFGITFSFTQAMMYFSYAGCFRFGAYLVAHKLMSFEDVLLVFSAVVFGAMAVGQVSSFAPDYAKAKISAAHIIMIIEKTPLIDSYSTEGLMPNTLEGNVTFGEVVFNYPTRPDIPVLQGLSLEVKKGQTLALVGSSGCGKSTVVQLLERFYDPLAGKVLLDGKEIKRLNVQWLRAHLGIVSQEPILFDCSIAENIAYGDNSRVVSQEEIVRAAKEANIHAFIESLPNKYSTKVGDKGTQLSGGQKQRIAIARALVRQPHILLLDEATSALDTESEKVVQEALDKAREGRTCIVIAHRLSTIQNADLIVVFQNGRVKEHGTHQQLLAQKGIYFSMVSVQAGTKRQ

| IC50 (TRKA [1]) | IC50 (TRKB [2]) | IC50 (TRKA [3]) | Papp A→B (MDR1) | Papp B→A (MDR1; MDCK-MDR1, B to A) | IC50 (TRKB [4]; TrkB enzyme potency) | Papp B→A (MDR1; MDCK-MDR1, MDCK-MDR1, B to A) | IC50 (TRKB [4]; [5]) | Structure (SMILES) |
| --- | --- | --- | --- | --- | --- | --- | --- | --- |
| 0.007 µM | 0.0045 µM | 0.012 µM | < 1 ×10⁻⁶ cm/s | 20 ×10⁻⁶ cm/s | 0.179 µM |  |  | CC(C)(CO)n1cc(C(=O)c2cncc(NC(=O)Cn3nc4ccccc4n3)c2)c2cnc(N)nc21 [Example 55, N-(5-{[2-Amino-7-(2-hydroxy-1,1-dimethylethyl)-7H-pyrrolo[2,3-d]pyrimidin-5-yl]carbonyl}pyridin-3-yl)-2-(2H-benzotriazol-2-yl)acetamide] |
| 0.0057 µM | 0.0016 µM | 0.002 µM | 1 ×10⁻⁶ cm/s |  |  | 24 ×10⁻⁶ cm/s | 0.096 µM | CC(C)(CO)n1cc(C(=O)c2cncc(NC(=O)Cn3cc(C4CC4)cn3)c2)c2cncnc21 [Example 33, 2-(4-cyclopropyl-1H-pyrazol-1-yl)-N-(5-{[7-(2-hydroxy-1,1-dimethylethyl)-7H-pyrrolo[2,3-d]pyrimidin-5-yl]carbonyl}pyridin-3-yl)acetamide] |
| 0.024 µM | 0.019 µM | 0.065 µM | < 1 ×10⁻⁶ cm/s |  |  | 13 ×10⁻⁶ cm/s | 0.433 µM | CC(CO)n1cc(C(=O)c2cncc(NC(=O)Cn3cc(C4CC4)cn3)c2)c2cncnc21 (stereo not drawn) [Example 25, 2-(4-Cyclopropyl-1H-pyrazol-1-yl)-N-(5-{[7-(2-hydroxy-1-methylethyl)-7H-pyrrolo[2,3-d]pyrimidin-5-yl]carbonyl}pyridin-3-yl)acetamide] |
| 0.0066 µM | 0.0021 µM | 0.01 µM | < 1 ×10⁻⁶ cm/s |  |  | 24 ×10⁻⁶ cm/s | 0.143 µM | CC(C)(CO)n1cc(C(=O)c2cncc(NC(=O)Cc3ccc(F)cc3F)c2)c2cnc(N)nc21 [Example 50, N-(5-{[2-amino-7-(2-hydroxy-1,1-dimethylethyl)-7H-pyrrolo[2,3-d]pyrimidin-5-yl]carbonyl}pyridin-3-yl)-2-(2,4-difluorophenyl)acetamide] |
| 0.014 µM | 0.019 µM | 0.022 µM | < 1 ×10⁻⁶ cm/s |  |  | 17 ×10⁻⁶ cm/s | 0.635 µM | C[C@H](CO)n1cc(C(=O)c2cncc(NC(=O)Cc3ccc(C(F)(F)F)cc3)c2)c2cncnc21 [Example 20, N-[5-({7-[(1R)-2-hydroxy-1-methylethyl]-7H-pyrrolo[2,3-d]pyrimidin-5-yl}carbonyl)pyridin-3-yl]-2-[4-(trifluoromethyl)phenyl]acetamide] |
| 0.0095 µM | 0.517 µM | 0.451 µM | 1.1 ×10⁻⁶ cm/s | 1 ×10⁻⁶ cm/s | 0.962 µM |  |  | CC(C)(CO)n1cc(C(=O)c2cncc(NC(=O)Cn3cc(C4CC4)nn3)c2)c2cnc(N)nc21 [Example 56, N-(5-{[2-Amino-7-(2-hydroxy-1,1-dimethylethyl)-7H-pyrrolo[2,3-d]pyrimidin-5-yl]carbonyl}pyridin-3-yl)-2-(4-cyclopropyl-1H-1,2,3-triazol-1-yl)acetamide] |
| 0.004 µM | 0.0075 µM | 0.011 µM | < 1 ×10⁻⁶ cm/s | 15 ×10⁻⁶ cm/s | 0.098 µM |  |  | CC(C)(CO)n1cc(C(=O)c2cncc(NC(=O)Cn3ccc(C(F)(F)F)n3)c2)c2cncnc21 [Example 30, N-(5-{[7-(2-hydroxy-1,1-dimethylethyl)-7H-pyrrolo[2,3-d]pyrimidin-5-yl]carbonyl}pyridin-3-yl)-2-[3-(trifluoromethyl)-1H-pyrazol-1-yl]acetamide] |
| 0.0049 µM | 0.0019 µM | 0.0027 µM | < 1 ×10⁻⁶ cm/s | 20 ×10⁻⁶ cm/s | 0.075 µM |  |  | CC(C)(CO)n1cc(C(=O)c2cncc(NC(=O)Cc3ccc(Cl)cc3)c2)c2cncnc21 [Example 28, 2-(4-chlorophenyl)-N-(5-{[7-(2-hydroxy-1,1-dimethylethyl)-7H-pyrrolo[2,3-d]pyrimidin-5-yl]carbonyl}pyridin-3-yl)acetamide] |
